Publication PMC4878759 (PLoS ONE, 2016)

Key:
[1] = target: T1, ANO1 (Homo sapiens, UniProt Q5XXA6, DEL476-501); assay: Apical membrane current in ANO1 expressing FRT cells; type: cell-based; details: 100 μM ATP
T1 construct: expressed in transfected cells
T1 sequence (Q5XXA6 with tags, fused parts or gaps isoform Q5XXA6-5 DEL539-564): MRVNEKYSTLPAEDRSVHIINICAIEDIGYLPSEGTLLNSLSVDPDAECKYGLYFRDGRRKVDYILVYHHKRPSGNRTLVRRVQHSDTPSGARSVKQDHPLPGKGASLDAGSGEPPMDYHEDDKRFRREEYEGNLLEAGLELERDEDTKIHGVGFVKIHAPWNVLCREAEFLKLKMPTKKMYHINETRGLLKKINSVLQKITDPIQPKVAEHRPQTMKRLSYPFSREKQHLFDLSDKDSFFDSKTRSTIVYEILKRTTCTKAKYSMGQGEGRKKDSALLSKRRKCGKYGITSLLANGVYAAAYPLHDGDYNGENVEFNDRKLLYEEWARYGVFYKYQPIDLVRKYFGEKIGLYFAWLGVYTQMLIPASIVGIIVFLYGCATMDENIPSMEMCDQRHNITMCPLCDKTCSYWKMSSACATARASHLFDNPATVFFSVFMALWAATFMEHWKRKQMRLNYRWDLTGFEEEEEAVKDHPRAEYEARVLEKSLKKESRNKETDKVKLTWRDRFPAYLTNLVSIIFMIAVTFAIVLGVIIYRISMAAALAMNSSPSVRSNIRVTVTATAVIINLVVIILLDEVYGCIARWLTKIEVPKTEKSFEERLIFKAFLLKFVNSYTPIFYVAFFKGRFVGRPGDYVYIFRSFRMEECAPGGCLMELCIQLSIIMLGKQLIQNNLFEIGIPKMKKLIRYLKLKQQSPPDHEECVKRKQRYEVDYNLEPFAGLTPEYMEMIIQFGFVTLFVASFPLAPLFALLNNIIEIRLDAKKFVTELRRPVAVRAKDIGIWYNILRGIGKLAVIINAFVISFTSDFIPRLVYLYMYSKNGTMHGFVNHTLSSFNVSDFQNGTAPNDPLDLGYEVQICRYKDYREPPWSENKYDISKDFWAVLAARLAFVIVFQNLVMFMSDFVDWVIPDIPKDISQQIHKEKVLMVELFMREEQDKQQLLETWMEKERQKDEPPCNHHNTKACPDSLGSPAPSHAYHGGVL
Description: (§1) Snapwell inserts containing ANO1, ANO2 or CFTR expressing FRT cells, ENaC expressing T-84 cells or the human primary airway epithelial cells were mounted in Ussing chambers (Physiologic Instruments, San Diego, CA). To induce transcriptional ENaC induction, the polarized T84 cells were incubated with 2 mM sodium butyrate for 2 days. To increase the functional expression of ANO1, the human airway epithelial cells were treated with IL-4 (10 ng/mL) for 2 days. For T-84 and the human primary airway epithelial cells, the apical and basolateral bath were filled with HCO3^—buffered solution containing (in mM): 120 NaCl, 5 KCl, 1 MgCl2, 1 CaCl2, 10 D-glucose, 2.5 HEPES, and 25 NaHCO3 (pH 7.4). For FRT cells, the basolateral bath was filled with the HCO3^—buffered solution and the apical bath was filled with a half-Cl^- solution. In the half-Cl^- solution 65 mM NaCl in the HCO3^—buffered solution was replaced by Na-gluconate. […] ATP was applied to the apical bath solution to induce intracellular calcium increase. […] Apical membrane currents were measured with an EVC4000 Multi-Channel V/I Clamp (World Precision Instruments, Sarasota, FL) and PowerLab 4/35 (AD Instruments, Castle Hill, Australia). Data were analyzed using Labchart Pro 7 (AD Instruments). The sampling rate was 4 Hz.

[2] = test system: VRAC; assay: VRAC activity by YFP quenching in LN215 cells; type: cell-based, human; details: 10 μM
Description: LN215 cells, a human glioma cell line, were stably transfected with YFP-F46L/H148Q/I152L, a halide sensor YFP. After the cells were incubated on 96well black plates (Corning Inc., Corning, NY) for 48 hours, each well of the 96-well plate was washed 3 times in PBS (200 μL/wash), and the wells were filled with 50 μl/well isotonic solution (in mM): 140 NaCl, 5 KCl, 20 HEPES (310 mOsm/kg; pH 7.4 with NaOH). In each well, VRAC expressed on the cells were stimulated with addition of 50 μl of hypotonic solutions (in mM): 5 KCl, 20 HEPES, 90 mannitol (120 mOsm/kg). Test compounds (1 μL) were added to each well in a dose dependent manner. After 5 min, 96-well plates were transferred to a plate reader for fluorescence assay. Each well was assayed individually for VRAC-mediated I^- influx by recording fluorescence continuously (400 ms per point) for 7.6 s. YFP fluorescence was recorded 0.4 s for baseline, then 100 μL of 140 mM I^- solution was added at 0.4 s to see the change in fluorescence. Initial iodide influx rate was determined from the initial slope of fluorescence decrease, by nonlinear regression, following infusion of iodide.

[3] = target: T2, mouse ANO2 (Mus musculus, UniProt Q8CFW1); assay: YFP quenching assay in FRT cells expressing ANO2; type: cell-based; details: dose dependent, 100 μM ATP
T2 sequence (Q8CFW1 1-1002): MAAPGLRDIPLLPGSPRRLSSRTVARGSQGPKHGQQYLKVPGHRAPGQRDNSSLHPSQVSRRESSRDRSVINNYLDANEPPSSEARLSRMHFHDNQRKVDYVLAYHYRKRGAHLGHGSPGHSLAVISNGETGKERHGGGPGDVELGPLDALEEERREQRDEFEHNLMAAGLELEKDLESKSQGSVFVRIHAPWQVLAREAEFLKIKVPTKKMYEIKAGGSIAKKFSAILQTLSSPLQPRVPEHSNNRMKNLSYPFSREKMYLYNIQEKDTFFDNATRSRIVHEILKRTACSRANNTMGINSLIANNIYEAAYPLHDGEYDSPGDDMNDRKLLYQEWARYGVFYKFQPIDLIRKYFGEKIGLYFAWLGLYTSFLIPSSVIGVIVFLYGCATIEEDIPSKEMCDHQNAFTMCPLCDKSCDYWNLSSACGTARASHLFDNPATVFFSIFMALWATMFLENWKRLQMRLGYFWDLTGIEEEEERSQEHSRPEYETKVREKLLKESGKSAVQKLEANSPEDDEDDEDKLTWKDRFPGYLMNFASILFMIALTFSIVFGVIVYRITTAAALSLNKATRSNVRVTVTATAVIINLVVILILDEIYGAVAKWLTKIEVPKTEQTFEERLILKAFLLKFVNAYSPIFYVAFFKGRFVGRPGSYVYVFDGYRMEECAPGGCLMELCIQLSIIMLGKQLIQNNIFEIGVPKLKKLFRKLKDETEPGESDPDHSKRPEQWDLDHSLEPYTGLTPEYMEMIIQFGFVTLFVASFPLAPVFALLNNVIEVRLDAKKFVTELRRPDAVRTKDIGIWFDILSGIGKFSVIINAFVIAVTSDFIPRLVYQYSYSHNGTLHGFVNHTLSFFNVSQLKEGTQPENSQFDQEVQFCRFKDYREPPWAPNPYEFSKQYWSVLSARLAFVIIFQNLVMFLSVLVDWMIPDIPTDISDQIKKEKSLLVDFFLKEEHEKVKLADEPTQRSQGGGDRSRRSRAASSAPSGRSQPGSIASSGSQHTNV

[4] = target: T3, ANO2 (Mus musculus, UniProt Q8CFW1); assay: Apical membrane current in FRT-ANO2 cells; type: cell-based; details: 10 μM pretreatment
T3 sequence (Q8CFW1 1-1002): T2 sequence (Q8CFW1 1-1002)
Description: as §1
ANO1 belongs to anoctamin gene family which contains ten members presenting eight-pass transmembrane segments with cytosolic N- and C-terminals. ANO2 shares a high level of amino acid homology to ANO1 (~60%) and, ANO1 and ANO2 are confirmed CaCCs. However, the roles of other family members (ANO3-ANO10) remain poorly understood and controversial. […] We investigated the effect of these inhibitors on ANO2-mediated apical membrane current in FRT-ANO2 cells.

[5] = test system: ANO1; design: method as in PMID 25739000; details: spontaneously hypertensive rats (SHRs) ref [8]; cited from earlier work
[6] = test system: ANO1; design: method as in PMID 25848051; details: mice ref [14]; cited from earlier work
[7] = test system: VRAC; design: method as in PMID 24965069, PMID 25163766, PMID 26438191; details: ref [26]–[28]; cited from earlier work
[8] = target: T4, CaCCs in NHNE cells (Homo sapiens, UniProt Q5XXA6); assay: Short-circuit current of CaCC in IL-4 treated NHNE cells; type: cell-based; details: 100 μM
T4 sequence (Q5XXA6 1-986): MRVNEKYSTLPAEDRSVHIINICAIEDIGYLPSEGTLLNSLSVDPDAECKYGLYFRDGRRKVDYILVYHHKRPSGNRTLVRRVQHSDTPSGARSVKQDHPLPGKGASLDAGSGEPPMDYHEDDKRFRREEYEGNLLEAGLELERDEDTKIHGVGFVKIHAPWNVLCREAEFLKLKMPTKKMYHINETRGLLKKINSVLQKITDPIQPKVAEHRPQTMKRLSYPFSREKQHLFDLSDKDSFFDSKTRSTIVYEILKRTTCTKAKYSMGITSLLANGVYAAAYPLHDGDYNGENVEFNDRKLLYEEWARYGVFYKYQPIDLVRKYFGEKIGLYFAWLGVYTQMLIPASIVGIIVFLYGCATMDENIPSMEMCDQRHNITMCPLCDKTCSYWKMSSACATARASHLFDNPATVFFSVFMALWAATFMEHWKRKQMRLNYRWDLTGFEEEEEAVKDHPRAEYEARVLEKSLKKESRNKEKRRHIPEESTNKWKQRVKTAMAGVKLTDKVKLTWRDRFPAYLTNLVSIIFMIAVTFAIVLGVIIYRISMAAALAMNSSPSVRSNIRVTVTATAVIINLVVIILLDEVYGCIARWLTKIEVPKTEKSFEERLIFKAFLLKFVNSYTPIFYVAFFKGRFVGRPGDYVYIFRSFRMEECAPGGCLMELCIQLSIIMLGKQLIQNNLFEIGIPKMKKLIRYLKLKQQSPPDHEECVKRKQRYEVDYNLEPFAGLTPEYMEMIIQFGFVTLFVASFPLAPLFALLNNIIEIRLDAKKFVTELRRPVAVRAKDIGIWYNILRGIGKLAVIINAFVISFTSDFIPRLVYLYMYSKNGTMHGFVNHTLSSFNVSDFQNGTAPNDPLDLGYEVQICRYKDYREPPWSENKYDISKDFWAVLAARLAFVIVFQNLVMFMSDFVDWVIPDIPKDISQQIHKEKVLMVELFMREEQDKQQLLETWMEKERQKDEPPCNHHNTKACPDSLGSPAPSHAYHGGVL
Description: Snapwell inserts containing ANO1, ANO2 or CFTR expressing FRT cells, ENaC expressing T-84 cells or the human primary airway epithelial cells were mounted in Ussing chambers (Physiologic Instruments, San Diego, CA). To induce transcriptional ENaC induction, the polarized T84 cells were incubated with 2 mM sodium butyrate for 2 days. To increase the functional expression of ANO1, the human airway epithelial cells were treated with IL-4 (10 ng/mL) for 2 days. For T-84 and the human primary airway epithelial cells, the apical and basolateral bath were filled with HCO3^—buffered solution containing (in mM): 120 NaCl, 5 KCl, 1 MgCl2, 1 CaCl2, 10 D-glucose, 2.5 HEPES, and 25 NaHCO3 (pH 7.4). For FRT cells, the basolateral bath was filled with the HCO3^—buffered solution and the apical bath was filled with a half-Cl^- solution. In the half-Cl^- solution 65 mM NaCl in the HCO3^—buffered solution was replaced by Na-gluconate. […] ATP was applied to the apical bath solution to induce intracellular calcium increase. […] Apical membrane currents were measured with an EVC4000 Multi-Channel V/I Clamp (World Precision Instruments, Sarasota, FL) and PowerLab 4/35 (AD Instruments, Castle Hill, Australia). Data were analyzed using Labchart Pro 7 (AD Instruments). The sampling rate was 4 Hz. […]

## CCc1c(C)nc(SCC(=O)Nc2nc(-c3ccc(OC)cc3)cs2)[nH]c1=O [Ani T16Ainh-A01]
[1]; 10 μM pretreatment
  inhibition of ATP-induced ANO1 current: almost complete inhibition
[1]; apical membrane current, 20 min pretreatment, read-out: IC50 of ATP-induced ANO1 activation
  IC50: 1390 ± 590 nM
[2]
  inhibition of VRAC activity: 71.2 ± 1.6%
[3]
  effect on ANO2 activity: potently blocked
[4]
  effect on ATP-induced ANO2 current: strongly blocked
[5]
  effect on BP: significantly reduced
[6]
  effect on capsaicin-evoked pain-related behaviors: significantly reduced
[7]
  block of VRAC activity: potently blocked

## tannic acid
[8]
  effect on remaining CaCCs currents: abolished
